The values that follow come from patent US20230192772A1, “ANTIMICROBIAL PEPTIDES AND USES THEREOF” (SORBONNE UNIVERSITE, priority 2016, published 2023).

What all share (type): cell-based
For data set [1], the system named is non-immune cells (epithelial cells). Kind of data set: Survival of non-immune cells. The following applies: doses of the micromolar order; mouse and human epithelial cells. As to the method:
The following non-immune cells were extracted after sacrificing C57BL6 mice or in a surgical context: epithelial cells, adipocytes, hepatocytes.
The peptides are incubated at 37° C., 5% CO2 in the presence of 500,000 immune and non-immune cells in RPMI medium at varied concentrations and at varied times. Peptide-free cells are used as the negative control and cells incubated for 5 min at 50° C. or in the presence of DMSO (30%) are used as the positive control. After incubation, the cells are washed then labelled with propidium iodide so as to measure the cell viability. The cell viability is analysed by counting or with flow cytometry in the presence of antibodies coupled with fluorochromes corresponding to characteristic markers of each cell population. The LC50 is then calculated as being the concentration of DA2N and DA2NEQ peptides inducing the death of 50% of each one of the immune cell populations.
Cytometry data processing is carried out with FlowJo software.

The next data set concerns Human red blood cells. The experiment in a line: Haemolytic activity. The following applies: 10 µM and 50 µM, 1h at 37° C. As to the method:
(§1) Mouse or donor blood is washed three times in 10 volumes of PBS at 4° C. by centrifugation at 800 g for 10 minutes. The blood sediment is finally diluted to 4% (v/v) in PBS buffer. The test was carried out as follows: either 10 µM, or 50 µM of peptide was added to 100 µL of red blood cell suspension.
(§2) After 1h of incubation at 37° C. followed by centrifugation (800 g, 15 min), the absorbance of the supernatant was measured at 550 nm.
(§3) The negative control for this test (0% haemolysis) contains 5 µL of PBS buffer instead of the solution containing the peptide and the positive control (100% haemolysis) contains 5 µL of 1% Triton X100 instead of the solution containing the peptide.

For data set [2], the system named is Pseudomonas aeruginosa ATCC 9027. Kind of data set: MIC/MBC, growth inhibition in liquid medium (Example 2). The following applies: Table 2. The text has this:
(§4) Escherichia coli (ATCC 8739, ATCC ML35p and P7 BLSE), Pseudomonas aeruginosa (ATCC 9027 and ATCC 27853), Klebsiella oxytoca (CIP 7932), Klebsiella pneumoniae (CIP 52.211), Salmonella enterica (CIP 8297), Yersinia ruckeri (ATCC 29473), Vibrio parahemolyticus (IFREMER 01 01/252), Staphylococcus aureus (ATCC 6538, ST 1065 and MRSA), Staphylococcus epidermidis (BM 3302), Listeria monocytogenes (SOR 100), Enterococcus faecalis (CIP A186, CIP 103015)), Kocuria rhizophila (ATCC 9341), Lactococcus garviae (ATCC 43921), Bacillus subtilis (CIP 52.65).
(§5) For each strain, a 5 ml pre-culture in LB medium is prepared by inoculating a colony of the bacterial strain of interest. The pre-culture is incubated at 37° C. under stirring overnight. The culture is subcultured (30 µL) in 5 mL. The culture concentration is evaluated by measuring the optical density at 620 nm. The concentration is adjusted by dilution so as to obtain a suspension with an OD of 0.05 at 620 nm.
(§6) The MIC is determined using a growth inhibition test in liquid medium. The MIC is defined as being the lowest peptide concentration capable of inhibiting the bacterial strain tested, after incubation for 18 h at 37° C. The test was carried out in a sterile microtitration plate containing 96 wells. A series of increasing concentrations of each peptide (0.2 to 100 µM) was prepared beforehand in sterile MilliQ water. In each well, 10 µL of peptide was incubated with 90 µL of bacterial suspension (10^7 cfu/mL) in yeast extract-free LB medium. The microplate was incubated at 37° C. for 18 h. The bacterial growth was evaluated by measuring the OD at 620 nm using a plate reader.
(§7) The negative growth inhibition control was obtained by replacing the solution containing the peptide by sterile MilliQ water. The positive control suitable for completely inhibiting the growth of the bacterial strains was obtained by replacing the solution containing the peptide by 10 µL of formaldehyde.
(§8) The results are interpreted by calculating the percentage of bacterial growth in each well according to the formula:
(§9) %Growth = (OD well - OD of T0)/(OD of T100-OD of T0)*100 where
(§10) • OD of T100 = OD of growth control (bacterial suspension free from sample under test, 100% growth), • OD of T0 = OD of sterility control (culture medium + bacterium + 10 µL formaldehyde, 0% growth) and • OD well = OD of well for which it is sought to calculate the growth percentage (bacterial suspension + peptide under test).
(§11) The MBC is defined as being the minimum peptide concentration leaving no surviving bacteria of the inoculum after incubation at 37° C. for 24 hours. This test consists of smearing the contents of the well wherein the peptide has inhibited bacterial growth on a Petri dish (LB agar), followed by incubation for 24 h at 37° C.

For data set [3], the system named is Klebsiella oxytoca CIP 7932. The data set is described as above. The following applies: Table 2.
Text: as §4, §5, §6, §7, §8, §9, §10, §11

In data set [4] the test system is Escherichia coli ATCC 8739. Described as above. The following applies: Table 2.
Text: as §4, §5, §6, §7, §8, §9, §10, §11

Data set [5] concerns Staphylococcus epidermidis BM 3302. The description is as above. The following applies: Table 2.
Text: as §4, §5, §6, §7, §8, §9, §10, §11

Data set [6] has as its system Kocuria rhizophila ATCC 9341. Described as above. The following applies: Table 2.
Text: as §4, §5, §6, §7, §8, §9, §10, §11

The test system of data set [7] is Staphylococcus aureus ST 1065. Described as above. The following applies: Table 2.
Text: as §4, §5, §6, §7, §8, §9, §10, §11

Data set [8] relates to Staphylococcus aureus ATCC 6538. Described as above. The following applies: Table 2.
Text: as §4, §5, §6, §7, §8, §9, §10, §11

For the next data set, the system named is Escherichia coli ML35p. The data set is described as above. The following applies: Table 2.
Text: as §4, §5, §6, §7, §8, §9, §10, §11

The test system of data set [9] is Bacillus subtilis CIP 52.65. Described as above. The following applies: Table 2.
Text: as §4, §5, §6, §7, §8, §9, §10, §11

Data set [10] deals with Klebsiella pneumoniae CIP 5211. The description is as above. The following applies: Table 2.
Text: as §4, §5, §6, §7, §8, §9, §10, §11

For the next data set, the system named is Mouse red blood cells. Kind of data set: Haemolytic activity. The following applies: results not shown. Here is the method:
as §1, §2, §3
The haemolytic activity of the antimicrobial peptides was measured as per the protocol described in part 3.1 of Example 3.

Ends that are not written are not given here.

ALWKTLLKKVGKVAGKAVLNAVTNMANQN-OH [DA2N]: the “death of non-immune cells” value in data set [1] was “induce the death of immune cells but not of non-immune cells”. Further, the “haemolysis of human red blood cells” value in the data set on Human red blood cells was “do not induce the haemolysis”. In addition, the MBC (usually the smallest concentration meeting the test's criterion for killing) stood at 12.5 µM in [2]; 6.25 µM in [3]; 3.12 µM in data set [4]; 12.5 µM in [5]; 3.12 µM in data set [6]; 12.5 µM in data set [7]. Also, the MBC (in data set [8]; in the data set on Escherichia coli ML35p; in data set [9]) was 6.25 µM each time. Moreover, the MIC (usually the smallest concentration in the dilution series that meets the test's criterion for growth inhibition) is 12.5 µM in data set [2]; 3.12 µM in data set [3]; 3.12 µM in data set [4]; 1 µM in data set [5]; 3.12 µM in data set [6]; 12.5 µM in data set [7]. Also, the MIC is reported as 6.25 µM in data set [8], 3.12 µM in the data set on Escherichia coli ML35p, 6.25 µM in [9] and 3.12 µM in data set [10]. Moreover, in the data set with Mouse red blood cells, the “haemolysis of mouse red blood cells” value is reported as “do not induce the haemolysis”.

Consider “ALWKTLLKKVGKVAGKAVLNAVTNMANQNEQ [DA2NEQ, ALWKTLLKKVGKVAGKAVLNAVTNMANQNEQOH]”, for which, in [1], the “death of non-immune cells” value was “induce the death of immune cells but not of non-immune cells”. In addition, the “haemolysis of human red blood cells” value in the data set on Human red blood cells is reported as “do not induce the haemolysis”. Besides, the MBC in [2] is on record as 25 µM; in [3], more than 100 µM; in data set [4], 6.25 µM; in data set [5], more than 100 µM; in [6] it was 6.25 µM; in data set [7], more than 100 µM. Moreover, the MBC in data set [8] amounted to 12.5 µM; in the data set on Escherichia coli ML35p, 6.25 µM; in data set [9], 6.25 µM. The MIC in data set [2] is given as 12.5 µM; in data set [3] it was 12.5 µM; in data set [4], 3.12 µM; in [5], more than 100 µM; in data set [6] it was 6.25 µM; in data set [7], more than 100 µM. Moreover, the minimal inhibitory concentration (MIC) in [8] is reported as 12.5 µM; in the data set on Escherichia coli ML35p, 6.25 µM; in [9] it was 6.25 µM; in data set [10], 3.12 µM. Besides, in the data set with Mouse red blood cells, the “haemolysis of mouse red blood cells” value is on record as “do not induce the haemolysis”.
